Common to all, as to assay: colorimetric oxidation kinetics, purified enzyme
Common to all, as to format: biochemical

The target of test [1] is T1, Th3 (Trametes hirsuta, UniProt B2L9C1, N227E/S448D, form not given).
T1 construct: gene Lac; secreted from S. cerevisiae (pJRoC30), purified fraction, about 56 kDa; wild type not expressible
The settings on record: optimal pH, O2 as co-substrate.

In test [2] the target is T2, Th3 (Trametes hirsuta, UniProt B2L9C1, N227H/F478W, form not given).
T2 construct: gene Lac; secreted from S. cerevisiae (pJRoC30), purified fraction, about 56 kDa; wild type not expressible
The note with it: optimal pH; O2 as co-substrate.

In the next test the target is T3, OB-1 (basidiomycete PM1, UniProt Q12571).
T3 construct: S. cerevisiae expression, purified
The note with it: optimal pH; O2 as co-substrate.

Test [3] addresses T4, Th3 (Trametes hirsuta, UniProt B2L9C1).
T4 construct: gene Lac; secreted from S. cerevisiae (pJRoC30), purified fraction, about 56 kDa; wild type not expressible
The note with it: optimal pH 4, O2 as co-substrate.

In test [4] the target is T5, Th3 (Trametes hirsuta, UniProt B2L9C1, F286M/A414S, form not given).
T5 construct: gene Lac
The settings on record: optimal pH 5; O2 as co-substrate.

[5] abbreviates: text prints 'for Th3.7' inside a sentence on Th3.10 (apparent misprint, check Table S4).

These results are taken from paper PMC9638991, “Designed High-Redox Potential Laccases Exhibit High Functional Diversity” (ACS Catalysis, 2022).

T1 sequence (B2L9C1 entry or part of it N227E/S448D, form open): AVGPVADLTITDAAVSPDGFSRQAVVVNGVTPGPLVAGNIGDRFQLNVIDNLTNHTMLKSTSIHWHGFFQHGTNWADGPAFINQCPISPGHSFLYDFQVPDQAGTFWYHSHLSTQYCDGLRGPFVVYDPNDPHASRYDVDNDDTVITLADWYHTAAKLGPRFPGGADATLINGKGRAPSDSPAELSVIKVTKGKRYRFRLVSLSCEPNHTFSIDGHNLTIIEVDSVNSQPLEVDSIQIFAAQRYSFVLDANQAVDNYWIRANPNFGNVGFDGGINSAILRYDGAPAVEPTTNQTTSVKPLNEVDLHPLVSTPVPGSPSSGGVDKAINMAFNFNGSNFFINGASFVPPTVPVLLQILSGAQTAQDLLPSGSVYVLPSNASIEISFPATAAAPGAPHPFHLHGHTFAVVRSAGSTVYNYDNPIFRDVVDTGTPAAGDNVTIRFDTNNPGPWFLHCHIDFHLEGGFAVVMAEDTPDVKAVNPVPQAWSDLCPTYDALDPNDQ
T3 sequence (Q12571 entry or part of it): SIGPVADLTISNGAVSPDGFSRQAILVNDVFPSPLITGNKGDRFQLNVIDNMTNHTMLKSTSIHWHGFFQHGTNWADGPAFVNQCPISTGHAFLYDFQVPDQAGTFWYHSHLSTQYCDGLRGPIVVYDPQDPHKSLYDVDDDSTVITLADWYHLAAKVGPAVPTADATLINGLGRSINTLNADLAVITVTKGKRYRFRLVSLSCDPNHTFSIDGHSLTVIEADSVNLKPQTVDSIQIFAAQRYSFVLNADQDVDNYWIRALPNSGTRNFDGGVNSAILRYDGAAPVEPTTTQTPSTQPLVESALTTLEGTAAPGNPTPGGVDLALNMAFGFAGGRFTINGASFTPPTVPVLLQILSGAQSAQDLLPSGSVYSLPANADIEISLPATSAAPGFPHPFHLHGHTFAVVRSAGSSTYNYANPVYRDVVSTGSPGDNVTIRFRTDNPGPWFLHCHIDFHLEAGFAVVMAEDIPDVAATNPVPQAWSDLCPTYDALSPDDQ
T2 sequence (B2L9C1 entry or part of it N227H/F478W, form open): as the sequence (B2L9C1 entry or part of it N227E/S448D, form open) above, with E206H, D427S, F457W counted along it
T4 sequence (B2L9C1 entry or part of it): as the sequence (B2L9C1 entry or part of it N227E/S448D, form open) above, with E206N, D427S counted along it
T5 sequence (B2L9C1 entry or part of it F286M/A414S, form open): as the sequence (B2L9C1 entry or part of it N227E/S448D, form open) above, with E206N, F265M, A393S, D427S counted along it

As for `COc1cccc(OC)c1O` [DMP, 2,6-dimethoxyphenol], the Km (usually the concentration of substrate that gives half-maximal velocity) at Th3 [1] (setting [5]) was 17.1 µM; on Th3 [2], 44 µM; at OB-1, 165 ± 2 µM; on Th3 [3] (purified fraction, values estimates), 1280 µM.

In the case of `COc1cc(/C=C/C(=O)O)cc(OC)c1O` [SA, sinapic acid], the values for the Km on Th3 [1] (setting [5]), on Th3 [2] and at OB-1 were 150 µM, 185 µM and 81 ± 15 µM, respectively.

For `COc1ccccc1O` [GUA, guaiacol], the Km on Th3 [1] was determined as 667 ± 36 µM; at OB-1, 1070 ± 30 µM; at Th3 [4], 555 ± 85 µM; at Th3 [3] it was 1790 ± 160 µM.
